Experimental data taken from patent US20240366607A1, “COMPOSITION FOR PREVENTION OR TREATMENT OF ATOPIC DERMATITIS COMPRISING AKT SIGNALING PATHWAY INHIBITOR AS ACTIVE INGREDIENT” (priority 2021, published 2024).

Assays:
T cells in the spleen = test: FACS of T cell fractions in spleen of atopic dermatitis mouse model; type: in vivo
Protocol: (§1) Atopic skin lesions were induced in NC/Nga mice by treatment with HDM three times a week until 4 weeks after the start of the experiment, and then each mouse was treated with ipatasertib and/or 0.1% dexamethasone (200 μL) three times a week for another four weeks (FIG. 3). Control groups consisted of a non-HDM-treated group (3 animals), a HDM-treated group (3 animals), and a HDM-and 0.1% dexamethasone-treated group (3 animals, positive control group), and experimental groups were administered ipatasertib after HDM treatment. Then, in order to check changes in skin-specific T cells in each animal, single suspensions were prepared using the spleen, skin, and lymph nodes, and T-cells were stained using anti-CD3, anti-CD4, anti-CD8, and CD45 antibodies. Flow cytometry was performed on skin-specific T cells using anti-CD69 and anti-CD103 antibodies, thereby observing the changes in number and distribution of skin-specific T cells by the application of the drug.

serum total IgE = test: Serum total IgE by ELISA in atopic dermatitis mouse model; type: in vivo
Protocol: as §1
(§2) Blood was collected from the mouse heart, and then serum total DF-specific IgE (ng/mL) (A450) was measured in a 96-well plate (Corning Inc., Corning, NY, USA) using the ELISA MAX™ Delux Set (BioLegend, San Diego, CA, USA) kit.
The changes in serum total IgE levels in atopic dermatitis mouse models by ipatasertib treatment were measured. […]

[1] = tested on: human T cells in the skin of the avatar mouse; test: Human T cell fractions in the skin of the avatar mouse; type: in vivo
Protocol: (§3) PBMCs were obtained from blood samples isolated from atopic dermatitis patients, and then CD3+ T cells, which are pathogenic cells, and CD3-depleted PBMCs, which are antigen-presenting cells, were separated therefrom. Human PBMC cells obtained by this method were injected into an immunodeficient NSG mouse by two different routes of administration. That is, avatar mice were prepared by injecting CD3+ T cells, which are pathogenic cells, through intravenous injection, and CD3-depleted PBMCs through intradermal injection. After the hair on the back of the prepared avatar mouse was shaved, dead skin cells were removed using 3M film once every three days, and 100 mg of house dust mite ointment was applied to the back of the mouse for three weeks. Then, from week 4, the mouse was treated with house dust mite ointment plus ipatasertib to evaluate the therapeutic effect of ipatasertib (FIG. 14A).

[2] = tested on: T cells in skin-draining lymph nodes; test: FACS of T cell fractions in skin-draining lymph nodes of atopic dermatitis mouse model; type: in vivo
Protocol: as §1

skin-specific T cells = test: FACS of T cells using skin immune cells and skin lesions of atopic dermatitis patients; type: cell-based, human
Protocol: To verify the effect of the candidate drug on skin-specific T cells in human skin tissue, a single suspension was prepared using the skin from an atopic dermatitis patient. T cells were stained using anti-CD3, anti-CD4, anti-CD8 and anti-CD45 antibodies, and flow cytometry was performed on skin-specific T cells using anti-CD69 and anti-CD103 antibodies, thereby observing the changes in number and distribution of skin-specific T cells by the application of the drug.

normal skin tissue = test: MTT assay, cell viability in normal skin tissue; type: cell-based; conditions: for cell viability: normal skin tissue
Protocol: To determine the final concentration of the drug ipatasertib, normal skin tissue was seeded in a 96-well plate, and treated with ipatasertib at varying concentrations of 1 μM, 10 μM, 50 μM, 100 μM, and 200 μM. The safety and toxicity of the drug to the normal skin tissue were evaluated by measuring the absorbance at 540 nm.

[3] = tested on: humanized avatar mouse model; test: Therapeutic effect in humanized avatar mouse model with HDM-induced atopic dermatitis; type: in vivo; conditions: applied to the back three times a week for one week after three weeks HDM
Protocol: as §3

[4] = tested on: NC/Nga mice with induced atopic dermatitis; test: HDM-induced atopic dermatitis in NC/Nga mice: skin lesions and SCORAD index; type: in vivo, mouse
Protocol: NC/Nga mice showing clinical and histological phenotypes similar to atopic dermatitis were used. To prepare atopic dermatitis animal models, atopic skin lesions were induced by treating mice with house dust mites (HDM), a representative trigger/aggravator of atopic dermatitis (FIG. 2).
as §1
To evaluate the effect of ipatasertib administration in NC/Nga mice with induced atopic dermatitis, atopic dermatitis was induced by applying house dust mite (HDM) ointment to the mouse's back three times a week for 4 weeks, and then ipatasertib drug was applied to the mouse's back three times a week for another 4 weeks. […] Each score was obtained by the Wilcoxon signed-rank test, and P<0.05 was considered statistically significant. Three mice per group were tested.

[5] = tested on: skin tissue of NC/Nga mice; test: H&E staining of skin tissue of HDM-treated NC/Nga mice (eosinophil count, epidermal thickness); type: in vivo, mouse
Protocol: Data are expressed as mean±standard deviation (SD). **P<0.01, *P<0.05.
as §1
Patients with allergic diseases often have a blood eosinophil count that increased by more than 5%, and based on this fact, eosinophils were counted by hematoxylin and eosin (H&E) staining. […] In addition, when atopic dermatitis occurs, the skin thickens due to an excessive inflammatory response.

DF-specific IgE = test: Serum total DF-specific IgE by ELISA in atopic dermatitis mouse model; type: in vivo; conditions: 100 μM
Protocol: as §1, §2
House dust mites are a common cause of allergy, and based on this fact, DF-specific IgE was measured.

[6] = tested on: skin-specific T cells in the skin; test: FACS of skin-specific T cell fractions in skin of atopic dermatitis mouse model; type: in vivo
Protocol: as §1

[7] = 100 μM, compared to 0.1% dexamethasone group

With CC(C)NC[C@@H](C(=O)N1CCN(c2ncnc3c2[C@H](C)C[C@H]3O)CC1)c1ccc(Cl)cc1 [ipatasertib] the “CD69+ T cells and CD103+ T cells” value (T cells in the spleen) was “decreased statistically significantly”, the “proportion of CD3+ and CD4+ T cells” value (T cells in the spleen) was “decreased in a dose-dependent manner” and the “decrease in the total serum IgE level” value (serum total IgE; [7]) was “significantly greater”. The “serum total IgE level” value (serum total IgE; ELISA, ipatasertib groups up to 100 μM) was “decreased in a dose-dependent manner”, the “proportion of human CD3 T cells” value ([1]; 100 μM, compared to control group) was “significantly decreased compared to that in the control group” and the “proportions of human CD8 and CD4 cells” value ([1]; drug-treated group) was “significantly lower”. For the same compound, the “fraction of T cells expressing CD69 among CD3+ CD4+ T cells” value [2] was “tended to decrease”, the “fraction of CD3+ CD4+ CD103+ T cells” value ([2]; 100 μM) was “statistically significantly lowest” and the “proportion of CD3+ T cells” value ([2]; 100 μM) was “lowest proportion of CD3+ T cells”. The “proportion of skin-specific T cells” value (skin-specific T cells; 50 μM) was “significantly decreased”, the “proportion of skin-specific T cells” value (skin-specific T cells; 100 μM) was “significantly decreased” and the cell viability (normal skin tissue; 50 μM) was at least 90%. The cell viability (normal skin tissue; 100 μM) was at least 90%, the “toxicity in normal skin tissue” value (normal skin tissue; up to 100 μM) was “no significant toxicity” and the “therapeutic effect against atopic dermatitis” value [3] was “clinically significant therapeutic effect”. For the same compound, the “recovery of skin lesions” value ([4]; 100 μM, applied to the back three times a week for 4 weeks) was “most notable recovery”, the “scoring atopic dermatitis (SCORAD) index” value [4, 7] was “lower SCORAD index than the 0.1% dexamethasone-administered group” and the “therapeutic effect on atopic dermatitis skin lesions” value ([4]; applied to the back three times a week for 4 weeks after 4 weeks HDM) was “significant therapeutic effect was observed in a drug concentration-dependent manner”. For the same compound, the “wounds, dryness, and shedding” value ([4]; compared to positive control 0.1% dexamethasone) was “significantly reduced compared to the positive control group administered 0.1% dexamethasone”, the “scoring atopic dermatitis (SCORAD) index” value ([4]; ipatasertib-administered groups, three mice per group) was “significantly decreased” and the eosinophil count [5] was “decreased depending on the ipatasertib concentration”. For the same compound, the epidermal thickness [5] was “decreased as the concentration of ipatasertib increased”, the “total DF-specific IgE level” value (DF-specific IgE) was “significantly decreased” and the “total DF-specific IgE level” value (DF-specific IgE; compared to 0.1% dexamethasone group) was “significantly decreased even compared to that in the 0.1% dexamethasone group”. For the same compound, the “proportions of CD3+, CD4+, CD69+, and CD103+ skin-specific T cells” value ([6]; 50 μM, skin) was “significantly decreased”, the “proportions of CD3+, CD4+, CD69+, and CD103+ skin-specific T cells” value ([6]; 100 μM, skin) was “significantly decreased” and the “CD69+ T cells and CD103+ T cells” value ([6]; skin tissues of the ipatasertib groups) was “statistically significantly decreased”. The “proportions of skin-specific T cells” value ([6]; skin, compared to 0.1% dexamethasone-treated group) was “significantly decreased even compared to that in the 0.1% dexamethasone-treated group”.
